Test results reported in ChEMBL document CHEMBL4261609, “Chemistry-driven glycoscience” (Bioorg Med Chem, 2018).

Legend:
[1] = biological target: T1, L-selectin (Homo sapiens) (UniProt P14151); test: Inhibition of human L-selectin transfected in mouse 300.19 cells assessed as decrease in protein-mediated cell rolling on GlyCAM-1 or PNAd preincubated for 5 mins followed by cell perfusion through laminar flow chamber coated with GlyCAM-1 or PNAd relative to control; type: cell-based
T1 sequence (whole entry): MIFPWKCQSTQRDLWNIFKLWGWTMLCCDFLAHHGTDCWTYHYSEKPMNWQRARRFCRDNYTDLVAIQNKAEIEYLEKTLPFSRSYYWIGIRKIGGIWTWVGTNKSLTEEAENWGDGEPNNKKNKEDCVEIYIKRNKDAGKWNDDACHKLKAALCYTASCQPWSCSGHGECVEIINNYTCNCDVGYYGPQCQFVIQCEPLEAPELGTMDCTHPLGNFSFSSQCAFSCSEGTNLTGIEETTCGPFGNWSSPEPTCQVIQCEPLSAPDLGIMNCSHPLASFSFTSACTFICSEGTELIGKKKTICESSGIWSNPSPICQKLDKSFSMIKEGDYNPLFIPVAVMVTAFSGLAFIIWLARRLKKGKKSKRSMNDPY

CD209 antigen = biological target: T2, CD209 antigen (Homo sapiens, UniProt Q9NNX6); test: Inhibition of DC-SIGN (unknown origin)
T2 sequence (Q9NNX6 whole entry): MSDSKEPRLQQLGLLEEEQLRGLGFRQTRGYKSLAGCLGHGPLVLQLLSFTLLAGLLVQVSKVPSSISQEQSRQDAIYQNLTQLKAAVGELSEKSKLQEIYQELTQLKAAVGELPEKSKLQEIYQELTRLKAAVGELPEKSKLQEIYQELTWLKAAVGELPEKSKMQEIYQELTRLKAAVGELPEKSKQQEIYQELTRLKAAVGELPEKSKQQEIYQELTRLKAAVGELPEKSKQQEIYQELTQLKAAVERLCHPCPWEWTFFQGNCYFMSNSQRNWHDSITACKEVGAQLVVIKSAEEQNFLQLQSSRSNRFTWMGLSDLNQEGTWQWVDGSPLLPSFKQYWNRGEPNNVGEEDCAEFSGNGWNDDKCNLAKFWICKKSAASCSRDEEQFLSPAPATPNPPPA

fold change (FC) [1] | SMILES | also measured
3 | CCCO[C@@H]1O[C@H](COS(=O)(=O)O)[C@@H](O[C@@H]2O[C@H](CO)[C@H](O)[C@H](O[C@]3(C(=O)O)C[C@H](O)[C@@H](NC(C)=O)[C@H]([C@H](O)[C@H](O)CO)O3)[C@H]2O)[C@H](O[C@@H]2O[C@@H](C)[C@@H](O)[C@@H](O)[C@@H]2O)[C@@H]1O | –
– | NC(=O)[C@@H](CCC(=O)O)NC(=O)[C@H]1C[C@@H](O)[C@H](O)[C@H](O)[C@H]1SCCCCSCc1cccc(F)c1 | IC50 (CD209 antigen): 3.2 mM
1 | CCCO[C@@H]1O[C@H](CO)[C@@H](O[C@@H]2O[C@H](CO)[C@H](O)[C@H](O[C@]3(C(=O)O)C[C@H](O)[C@@H](NC(C)=O)[C@H]([C@H](O)[C@H](O)CO)O3)[C@H]2O)[C@H](O[C@@H]2O[C@@H](C)[C@@H](O)[C@@H](O)[C@@H]2O)[C@@H]1O | –
– | CC(=O)N[C@@H]1C(O)O[C@H](CO)[C@@H](O)[C@@H]1O (some centres undefined) | Ki (CD209 antigen): 11 mM
